Results as given in ChEMBL document CHEMBL1139500, “The next generation of phosphodiesterase inhibitors: structural clues to ligand and substrate selectivity of phosphodiesterases” (J Med Chem, 2005).
Values belong to the molecule of their own block, whether it stands above or below them.

What was measured:
Phosphodiesterase 7 [1] = molecular target: T1, Phosphodiesterase 7 (Homo sapiens, UniProt Q13946+Q9NP56); test: (§1) Inhibition of human phosphodiesterase 7; type: protein assay
Phosphodiesterase 6 = test: Inhibition of human phosphodiesterase 6; type: protein assay
[2] = Inhibitory activity against phosphodiesterase 8
Phosphodiesterase 7 [3] = molecular target: T1, Phosphodiesterase 7; test: as §1; type: protein assay; remark: listed apart in the source
[4] = molecular target: cGMP-dependent 3',5'-cyclic phosphodiesterase (Homo sapiens, UniProt O00408); test: Inhibition of human phosphodiesterase 2
Phosphodiesterase 1 = Phosphodiesterase 1 (Homo sapiens, UniProt P54750+Q01064+Q14123); test: Inhibition of human phosphodiesterase 1; type: protein assay
[5] = molecular target: High affinity cGMP-specific 3',5'-cyclic phosphodiesterase 9A (Homo sapiens, UniProt O76083); test: Inhibition of human phosphodiesterase 9
[6] = molecular target: cAMP and cAMP-inhibited cGMP 3',5'-cyclic phosphodiesterase 10A (Homo sapiens, UniProt Q9Y233); test: Inhibitory concentration value against phosphodiesterase 10
Chain of cAMP and cAMP-inhibited cGMP 3',5'-cyclic phosphodiesterase 10A (Q9Y233 whole entry): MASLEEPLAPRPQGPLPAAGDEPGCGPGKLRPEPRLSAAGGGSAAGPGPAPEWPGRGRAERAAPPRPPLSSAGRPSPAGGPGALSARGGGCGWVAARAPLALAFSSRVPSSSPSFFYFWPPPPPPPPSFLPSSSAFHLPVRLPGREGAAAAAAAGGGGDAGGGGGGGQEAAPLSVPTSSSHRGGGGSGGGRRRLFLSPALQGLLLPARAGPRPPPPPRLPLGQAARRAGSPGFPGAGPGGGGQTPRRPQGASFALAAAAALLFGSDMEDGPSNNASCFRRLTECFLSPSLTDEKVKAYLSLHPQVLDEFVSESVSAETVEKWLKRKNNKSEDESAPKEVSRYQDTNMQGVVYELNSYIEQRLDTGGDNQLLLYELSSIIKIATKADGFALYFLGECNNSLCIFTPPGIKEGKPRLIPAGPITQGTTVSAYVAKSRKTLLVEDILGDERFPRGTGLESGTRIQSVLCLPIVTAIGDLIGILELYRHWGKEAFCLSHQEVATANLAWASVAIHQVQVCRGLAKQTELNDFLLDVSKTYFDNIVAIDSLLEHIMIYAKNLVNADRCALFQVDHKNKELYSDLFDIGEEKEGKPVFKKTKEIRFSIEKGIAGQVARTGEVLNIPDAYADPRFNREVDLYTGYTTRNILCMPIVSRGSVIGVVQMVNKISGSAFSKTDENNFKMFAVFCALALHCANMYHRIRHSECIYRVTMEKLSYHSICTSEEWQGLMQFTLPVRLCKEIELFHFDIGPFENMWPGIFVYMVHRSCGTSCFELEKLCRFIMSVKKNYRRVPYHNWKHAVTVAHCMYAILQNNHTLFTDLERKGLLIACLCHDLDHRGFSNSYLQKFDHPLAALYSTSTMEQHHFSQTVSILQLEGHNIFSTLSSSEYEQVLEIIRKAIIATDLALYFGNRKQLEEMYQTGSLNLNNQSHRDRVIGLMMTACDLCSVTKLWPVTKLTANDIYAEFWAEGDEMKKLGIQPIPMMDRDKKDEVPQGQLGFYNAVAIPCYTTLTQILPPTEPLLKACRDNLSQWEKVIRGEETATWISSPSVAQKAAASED

T1 sequence (Q13946 whole entry, looked up): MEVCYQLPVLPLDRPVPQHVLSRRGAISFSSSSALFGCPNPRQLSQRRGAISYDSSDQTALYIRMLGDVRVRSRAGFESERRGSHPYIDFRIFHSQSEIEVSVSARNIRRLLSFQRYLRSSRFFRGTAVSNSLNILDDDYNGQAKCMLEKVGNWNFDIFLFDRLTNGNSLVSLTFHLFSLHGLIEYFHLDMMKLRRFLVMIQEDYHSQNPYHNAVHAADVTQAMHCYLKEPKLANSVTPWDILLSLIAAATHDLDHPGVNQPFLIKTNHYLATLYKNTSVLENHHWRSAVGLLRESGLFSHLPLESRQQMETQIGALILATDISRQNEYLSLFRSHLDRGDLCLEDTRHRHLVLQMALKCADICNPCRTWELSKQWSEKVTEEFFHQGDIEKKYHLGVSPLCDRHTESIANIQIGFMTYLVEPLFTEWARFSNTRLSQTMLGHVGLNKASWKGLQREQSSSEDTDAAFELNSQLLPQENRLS
T1 sequence (Q9NP56 whole entry, looked up): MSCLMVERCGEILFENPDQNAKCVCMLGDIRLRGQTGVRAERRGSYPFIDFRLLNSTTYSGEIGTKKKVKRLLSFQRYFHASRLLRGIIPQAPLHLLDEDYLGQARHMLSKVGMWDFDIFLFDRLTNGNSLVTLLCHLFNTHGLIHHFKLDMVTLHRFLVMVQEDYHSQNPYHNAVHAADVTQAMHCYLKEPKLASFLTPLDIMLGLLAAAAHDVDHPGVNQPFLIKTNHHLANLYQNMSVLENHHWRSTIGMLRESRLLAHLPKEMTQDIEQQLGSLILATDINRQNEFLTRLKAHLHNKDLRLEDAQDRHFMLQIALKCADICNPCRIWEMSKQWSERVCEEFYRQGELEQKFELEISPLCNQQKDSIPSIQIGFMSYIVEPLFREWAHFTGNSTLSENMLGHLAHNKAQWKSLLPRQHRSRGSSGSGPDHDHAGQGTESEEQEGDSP
Chain of cGMP-dependent 3',5'-cyclic phosphodiesterase (O00408 whole entry): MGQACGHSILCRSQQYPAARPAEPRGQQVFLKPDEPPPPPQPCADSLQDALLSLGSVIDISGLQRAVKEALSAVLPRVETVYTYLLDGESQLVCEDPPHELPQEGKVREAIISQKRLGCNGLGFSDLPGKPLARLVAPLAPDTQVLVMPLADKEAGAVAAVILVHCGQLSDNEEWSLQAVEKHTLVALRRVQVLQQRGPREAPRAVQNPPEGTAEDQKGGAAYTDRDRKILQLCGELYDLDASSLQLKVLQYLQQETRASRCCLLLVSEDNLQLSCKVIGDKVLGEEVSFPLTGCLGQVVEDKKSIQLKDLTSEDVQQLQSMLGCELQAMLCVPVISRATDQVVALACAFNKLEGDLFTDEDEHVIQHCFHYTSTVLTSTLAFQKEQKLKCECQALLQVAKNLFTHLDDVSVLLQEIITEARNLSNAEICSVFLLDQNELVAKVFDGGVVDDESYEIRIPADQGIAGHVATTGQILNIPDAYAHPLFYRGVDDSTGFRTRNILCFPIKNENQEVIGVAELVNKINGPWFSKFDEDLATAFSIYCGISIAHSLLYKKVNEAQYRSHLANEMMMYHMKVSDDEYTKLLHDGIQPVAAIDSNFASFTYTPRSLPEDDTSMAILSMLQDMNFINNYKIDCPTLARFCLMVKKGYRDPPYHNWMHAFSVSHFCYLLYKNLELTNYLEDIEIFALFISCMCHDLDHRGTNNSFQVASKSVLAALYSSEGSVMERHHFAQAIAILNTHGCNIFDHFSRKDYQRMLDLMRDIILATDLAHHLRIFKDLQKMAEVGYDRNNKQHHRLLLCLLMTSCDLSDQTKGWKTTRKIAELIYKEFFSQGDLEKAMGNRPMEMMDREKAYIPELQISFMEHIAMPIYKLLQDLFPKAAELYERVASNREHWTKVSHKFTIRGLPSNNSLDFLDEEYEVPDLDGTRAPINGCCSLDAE
Chain of High affinity cGMP-specific 3',5'-cyclic phosphodiesterase 9A (O76083 whole entry): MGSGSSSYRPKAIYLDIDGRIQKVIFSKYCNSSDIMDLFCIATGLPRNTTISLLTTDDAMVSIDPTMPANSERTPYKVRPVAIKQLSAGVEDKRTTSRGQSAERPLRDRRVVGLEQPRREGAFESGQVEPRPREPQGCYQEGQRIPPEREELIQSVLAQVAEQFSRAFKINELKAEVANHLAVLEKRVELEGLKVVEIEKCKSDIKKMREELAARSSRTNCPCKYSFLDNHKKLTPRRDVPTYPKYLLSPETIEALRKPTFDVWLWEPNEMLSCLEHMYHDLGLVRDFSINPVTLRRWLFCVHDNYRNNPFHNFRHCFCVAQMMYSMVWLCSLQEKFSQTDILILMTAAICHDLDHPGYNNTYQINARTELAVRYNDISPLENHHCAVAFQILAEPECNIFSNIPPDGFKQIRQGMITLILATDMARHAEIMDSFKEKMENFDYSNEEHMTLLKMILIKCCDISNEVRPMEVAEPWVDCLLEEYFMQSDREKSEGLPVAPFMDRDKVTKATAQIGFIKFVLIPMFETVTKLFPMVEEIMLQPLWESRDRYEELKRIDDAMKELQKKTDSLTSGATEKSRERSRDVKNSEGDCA

Inhibition (Phosphodiesterase 7 [1]): 3.9 µM
Structure (SMILES): Cc1nc(N)c2ccc(-c3nn(C)/c(=N/C4CCCCC4)s3)cc2n1

Ki (Phosphodiesterase 6): 0.125 µM | Ki [2]: 9 µM | Ki (Phosphodiesterase 7 [3]): 0.6 µM
Structure (SMILES): OCCN(CCO)c1nc(N2CCCCC2)c2nc(N(CCO)CCO)nc(N3CCCCC3)c2n1 [DIPYRIDAMOLE]

Ki [4]: 1 µM
Structure (SMILES): CCCCCC[C@@H]([C@@H](C)O)n1cnc2c(N)ncnc21 [EHNA]

Ki (Phosphodiesterase 1): 14 µM
Structure (SMILES): CCOC(=O)C1=C[C@]2(CC)CCCN3CCc4c(n1c1ccccc41)[C@@H]32 [VINPOCETINE]

Ki (Phosphodiesterase 6): 0.4 µM | Ki [5]: 35 µM | IC50 [6]: 22 µM
Structure (SMILES): CCCOc1ccccc1-c1nc2[nH]nnc2c(=O)[nH]1 [ZAPRINAST]

Ki (Phosphodiesterase 7 [3]): 4 µM
Structure (SMILES): CC(C)Cn1c(=O)n(C)c(=O)c2nc[nH]c21 [ISOBUTYLMETHYLXANTHINE]

Inhibition (Phosphodiesterase 7 [1]): 1.5 µM
Structure (SMILES): Cn1nc(-c2ccc(Cl)cc2)s/c1=N\C1CCCCC1
